Data as given in article PMC12186844 (ACS Chemical Neuroscience, 2025).
Where two headings read alike, the source gives them in different places.

Assays:
[1] = system: D1Rs; conditions: earlier report, reference number not given; cited from earlier work
[2] = molecular target: T1, D2LR (Homo sapiens, UniProt P14416); test: inhibition of forskolin-stimulated cAMP production, BRET biosensor; format: cell-based;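 further: Flp-In-CHO cells stably expressing CAMYEL cAMP BRET sensor, agonist plus 10 µM forskolin, net BRET after forskolin-vehicle subtraction, parameters from complete operational model of allosterism and agonism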
Description: Flp-In-CHO cells stably coexpressing the CAMYEL biosensor and DRs were plated into white 96-well CulturPlates (Revvity) and grown overnight. The cells were equilibrated in Hank’s balanced salt solution (HBSS) at 37 °C (or 25 °C when indicated) before starting the experiment. The cells were costimulated with the agonists and 10 μM forskolin for the indicated time frames when the BRET readings were captured. Coelenterazine (Nanolight Technology, AZ) was added at a final concentration of 5 μM at least 3 min prior to measurement. […] Net BRET was determined by subtraction of the vehicle control coadded with 10 μM forskolin.
Dose–response curves were fitted using the following three-parameter equation: response=bottom+top−bottom/1+10^(logEC50−log[A]) 5 where top and bottom represent the maximal and minimal asymptote of the dose response curve, [A] is the molar concentration of the agonist, and EC50 is the molar concentration of the agonist required to give a response half-way between bottom and top.

[3] = molecular target: T1, D2LR; test: whole cell [3H]raclopride binding assay
Description: The binding reaction was conducted in HBSS for 1 h at 37 °C. The adherent cells were washed two times with cold 0.9% NaCl solution, and 100 μL/well scintilation liquid was added to the plate. The remaining radioactivity was detected in a MicroBeta counter.

[4] = orthosteric agonist efficacy, operational model
[5] = orthosteric ligand, radioligand binding assay

T1 sequence (P14416 whole entry): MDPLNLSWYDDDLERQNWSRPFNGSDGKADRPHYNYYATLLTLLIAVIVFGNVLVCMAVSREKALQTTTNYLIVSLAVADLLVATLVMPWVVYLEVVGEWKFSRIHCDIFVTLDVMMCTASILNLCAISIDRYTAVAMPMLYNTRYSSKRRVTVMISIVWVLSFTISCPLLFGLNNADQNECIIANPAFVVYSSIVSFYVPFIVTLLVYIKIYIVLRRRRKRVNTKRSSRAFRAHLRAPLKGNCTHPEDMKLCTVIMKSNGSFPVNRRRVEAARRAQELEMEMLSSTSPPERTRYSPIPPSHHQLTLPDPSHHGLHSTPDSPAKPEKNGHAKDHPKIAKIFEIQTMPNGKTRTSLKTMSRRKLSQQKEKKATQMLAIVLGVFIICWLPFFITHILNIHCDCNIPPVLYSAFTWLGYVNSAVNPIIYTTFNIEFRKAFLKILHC

Row | LogτA [2, 4] | τA [2, 4] | SMILES | LogτA [2] | τA [2] | other results
1 | – | – | CC1Cc2ccccc2N1C(=O)c1nc2ccccc2s1 (stereo not shown) [D2 PAM1, 1,3-benzothiazol-2-yl(2-methyl-2,3-dihydro-indol-1-yl)methanone] | – | – | activity at D1Rs [1]: does not display activity
2 | – | – | CN1CCc2cccc3c2[C@H]1Cc1ccc(O)c(O)c1-3 [apomorphine, reference compound] | 0.93 ± 0.02 | 8.5 | –
3 | – | – | CC(C)C[C@H]1C(=O)N2CCC[C@H]2[C@]2(O)O[C@](NC(=O)[C@@H]3C=C4c5cccc6[nH]c(Br)c(c56)C[C@H]4N(C)C3)(C(C)C)C(=O)N12 [bromocriptine, reference compound] | 0.66 ± 0.04 | 4.6 | Kd [3]: 1.32 nM
4 | 1.01 ± 0.03 | 10.2 | CCCN1C[C@H](CSC)C[C@@H]2c3cccc4[nH]cc(c34)C[C@H]21 [pergolide, reference compound] | – | – | –
5 | – | – | CCCN[C@H]1CCc2nc(N)sc2C1 [pramipexole, reference compound] | 1.05 ± 0.04 | 11.2 | –
6 | 1.14 ± 0.08 | 13.8 | CCCN(CCC)CCc1cccc2c1CC(=O)N2 [ropirinole, reference compound] | – | – | KA [3, 5]: 1350 nM; pKA [3, 5]: 5.87 ± 0.18
7 | – | – | CCCN(CCc1cccs1)[C@H]1CCc2c(O)cccc2C1 [rotigotine, reference compound] | 1.17 ± 0.05 | 14.8 | Kd [3]: 3.09 nM

Row | SMILES | LogτA [2, 4] | τA [2, 4] | LogτA [2] | τA [2] | other results
8 | CCCN1CCC[C@@H](c2cccc(O)c2)C1 [S-(3)-PPP, reference compound] | 0.33 ± 0.05 | 2.14 | – | – | –
